Laboratory results: article PMC5614982, “Impact of Gastric H^+/K^+-ATPase rs2733743 on the Intragastric pH-Values of Dexlansoprazole Injection in Chinese Subjects” (Frontiers in Pharmacology, 2017)

Experiment: Pharmacokinetics of dexlansoprazole injection after single intravenous infusion in healthy Chinese subjects
Assay type: in vivo, human
Settings: for Vd / clearance / half-life: iv
Experimental: Dexlansoprazole injection (30 mg per vial) used in the PK and PD study was manufactured by Nanjing Yoko Pharma Co., Ltd. (Nanjing, China). Subjects received an intravenous infusion of 20 or 30 mg dexlansoprazole injection in sterile saline solution (100 mL/h, 60 min). The study drug was administrated with an infusing pump (SA213, Lifepum, Beijing, China) and given through an intravenous catheter in the antecubital vein opposite to the one from which blood samples were taken.
To determine the pharmacokinetic properties of dexlansoprazole injection in human, a series of venous blood samples (5 mL) were collected in heparinized tubes at 0 (pre-dose), 10, 20, 40, 60, and 75 min, 1.5, 2, 2.5, 3, 4, 6, 9, 12, 16, 24, and 36 h post-dose. Samples were centrifuged immediately at 4°C for 10 min at 3,500 revolutions per minute, then separated and stored at −80°C for PK analysis.
A chiral liquid chromatography-mass spectrometry method was developed and validated for the simultaneous determination of (R)- and (S)-lansoprazole in human plasma, with the calibration curve of 500–3,000 ng/mL for both (R)- and (S)-lansoprazole (Sun et al., [2015]). […] The mass spectrometric analysis was performed using a QTrap 5500 mass spectrometer (AB Sciex, Concord, Ontario, Canada).
The PK parameter of Cmax (maximum concentration) and Tmax (the time to Cmax) were obtained directly from the observed data. Other PK parameters including t1/2 (elimination half-life), AUC^PK (area under the plasma concentration-time curve), Vd (volume of distribution), and CL (clearance) were calculated using non-compartmental methods with Phoenix WinNonlin version 6.4 (Pharsight Inc., CA, USA).

[1] = human, plasma, 20 mg, 20 mg iv, CYP2C19 PM (n = 6)
[2] = human, plasma, 20 mg, 20 mg iv, CYP2C19 hetEM (n = 9)
[3] = human, plasma, 20 mg, 20 mg iv, CYP2C19 homEM (n = 8)
[4] = human, plasma, 20 mg, 20 mg iv, Total (n = 23)
[5] = human, plasma, 30 mg, 30 mg iv, CYP2C19 PM (n = 7)
[6] = human, plasma, 30 mg, 30 mg iv, CYP2C19 hetEM (n = 10)
[7] = human, plasma, 30 mg, 30 mg iv, CYP2C19 homEM (n = 11)
[8] = human, plasma, 30 mg, 30 mg iv, Total (n = 28)
[9] = human, plasma, 20 mg iv, CYP2C19 PM (n = 6)

Question: Which “dose proportionality of Cmax and AUC^PK” value (20 vs 30 mg iv) does the source give for `Cc1c(OCC(F)(F)F)ccnc1C[S@@+]([O-])c1nc2ccccc2[nH]1` [dexlansoprazole] here?
Answer: exhibit dose proportionality

Question: And the “differences in PK parameters among ABCB1 genotypes” value (ABCB1 C3435T CC, CT, TT)?
Answer: no statistical significant differences

Question: And the Vd [1]?
Answer: 11 L

Question: And the clearance [1]?
Answer: 34.7 mL/min

Question: And the half-life [1]?
Answer: 3.65 h

Question: What about the Vd [2] of the same compound?
Answer: 8.78 ± 1.35 L

Question: What about the clearance [2] of the same compound?
Answer: 76.7 mL/min

Question: What about the half-life [2] of the same compound?
Answer: 1.37 ± 0.24 h

Question: What about the Vd [3] of the same compound?
Answer: 10.4 ± 1.07 L

Question: And the clearance [3]?
Answer: 113 mL/min

Question: And the half-life [3]?
Answer: 1.18 ± 0.4 h

Question: And the Vd [4]?
Answer: 9.62 ± 1.45 L

Question: What about the clearance [4] of the same compound?
Answer: 90.2 mL/min

Question: What about the half-life [4] of the same compound?
Answer: 1.41 ± 0.64 h

Question: What about the Vd [5] of the same compound?
Answer: 9.58 ± 1.56 L

Question: What about the clearance [5] of the same compound?
Answer: 40.2 mL/min

Question: And the half-life [5]?
Answer: 3.96 ± 1.54 h

Question: And the Vd [6]?
Answer: 8.2 ± 1.73 L

Question: And the clearance [6]?
Answer: 61.5 mL/min

Question: And the half-life [6]?
Answer: 1.56 ± 0.15 h

Question: What about the Vd [7] of the same compound?
Answer: 10.7 ± 1.23 L

Question: What about the clearance [7] of the same compound?
Answer: 115 mL/min

Question: What about the half-life [7] of the same compound?
Answer: 1.14 ± 0.28 h

Question: What about the Vd [8] of the same compound?
Answer: 9.78 ± 1.69 L

Question: What about the clearance [8] of the same compound?
Answer: 78.2 mL/min

Question: And the half-life [8]?
Answer: 2.17 ± 1.57 h

Question: And the AUC(0-inf) [9]?
Answer: 9600 ng·h/mL

Question: What about the Cmax [9] of the same compound?
Answer: 1670 ng/mL

Question: What about the AUC (human, plasma, 20 mg iv, CYP2C19 PM (n = 6), read-out: AUC0-tCon-t) of the same compound?
Answer: 9490 ng·h/mL

Question: What about the Tmax (human, plasma, 20 mg iv, CYP2C19 homEM (n = 8)) of the same compound?
Answer: 1 h

Question: And the Tmax (human, plasma, 30 mg iv, Total (n = 28))?
Answer: 1 h

Question: And the “AUC^PK for CYP2C19 PMs relative to CYP2C19 homEMs” value (same dose group)?
Answer: 3- to 4 fold

Question: What about the “t1/2 for CYP2C19 PMs relative to CYP2C19 homEMs” value (same dose group) of the same compound?
Answer: 3- to 4 fold
